Biological target: Recombinant GST-Tie2 (Homo sapiens, UniProt Q02763)
Assay: Tie2 fluorescence polarization kinase activity assay (TIE2-FP)
Assay type: biochemical
Settings: 200 μM ATP, 1 nM activated enzyme, 200 μM peptide
Protocol: Tie2 Fluorescence Polarization Kinase Activity Assay (TIE2-FP).
Activation of Recombinant Tie2 Activation:
Recombinant GST-Tie2 is activated by incubating the enzyme in 20 mM Tris-HCl, pH 7.5, 12 mM MgCl2, 100 mM NaCl, 20 μM sodium vanidate, 1 mM DTT and 300 μM ATP at room temperature for 2 hours. The activation mixture is then passed through a NAP-25 desalting column (Pharmacia Biotech cat. no. 17-0852-02) to remove the free ATP. The activated enzyme is stored as aliquots at −80° C. in 20 mM Tris-HCl, pH 7.5 and 100 mM NaCl.
The final assay conditions are 50 mM HEPES, pH 7.5, 5% DMSO (when screening compounds), 200 μM ATP, 5 mM MgCl2, 1 mM DTT, 50 μM sodium vanidate, 1 nM activated enzyme, and 200 μM peptide. IC50's of compounds are measured under subsaturating ATP (200 μM) and varing concentrations of activated Tie2 and peptide substrate (RFWKYEFWR-OH; MW 1873 Da, TFA salt). Panvera Anti-phosphotyrosine antibody (Cat#P2840) and PTK Green Tracer (Cat#P2842) are used to detect the phosphorylated peptide. Polarization is measured on a TECAN Polarion in 138-second cycles for 30 minutes at room temperature. IC50's are then determined from the % polarization using normal calculation methods.

Chain of Recombinant GST-Tie2 (Q02763 23-1124): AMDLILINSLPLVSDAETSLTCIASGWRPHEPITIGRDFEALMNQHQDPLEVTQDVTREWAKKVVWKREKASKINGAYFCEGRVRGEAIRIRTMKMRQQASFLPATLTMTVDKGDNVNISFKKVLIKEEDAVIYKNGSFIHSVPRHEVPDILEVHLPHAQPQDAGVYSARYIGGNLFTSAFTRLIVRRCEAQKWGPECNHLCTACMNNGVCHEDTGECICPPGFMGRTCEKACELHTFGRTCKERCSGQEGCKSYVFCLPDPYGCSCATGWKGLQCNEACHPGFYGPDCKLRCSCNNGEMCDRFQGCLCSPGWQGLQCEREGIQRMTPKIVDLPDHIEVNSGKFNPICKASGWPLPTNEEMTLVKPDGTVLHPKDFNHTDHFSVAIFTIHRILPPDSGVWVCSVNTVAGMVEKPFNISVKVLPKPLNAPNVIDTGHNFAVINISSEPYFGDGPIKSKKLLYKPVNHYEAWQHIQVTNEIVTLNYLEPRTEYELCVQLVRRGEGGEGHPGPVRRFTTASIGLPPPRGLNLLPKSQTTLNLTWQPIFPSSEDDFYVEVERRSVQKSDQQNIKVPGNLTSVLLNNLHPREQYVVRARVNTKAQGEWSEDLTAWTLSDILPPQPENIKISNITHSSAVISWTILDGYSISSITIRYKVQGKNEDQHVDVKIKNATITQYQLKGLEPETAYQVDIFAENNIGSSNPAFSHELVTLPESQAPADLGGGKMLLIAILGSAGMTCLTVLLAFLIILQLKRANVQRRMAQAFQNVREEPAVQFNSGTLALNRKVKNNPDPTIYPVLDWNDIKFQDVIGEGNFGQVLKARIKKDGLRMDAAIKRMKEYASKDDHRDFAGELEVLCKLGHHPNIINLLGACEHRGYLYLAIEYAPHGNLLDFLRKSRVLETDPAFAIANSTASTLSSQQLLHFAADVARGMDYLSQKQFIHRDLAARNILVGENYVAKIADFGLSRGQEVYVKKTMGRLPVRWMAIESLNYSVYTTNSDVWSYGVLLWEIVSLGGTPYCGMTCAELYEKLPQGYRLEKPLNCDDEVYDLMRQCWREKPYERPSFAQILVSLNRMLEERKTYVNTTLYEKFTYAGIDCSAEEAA

NC(=O)c1c(-c2ccc(NC(=O)Nc3cc(C(F)(F)F)ccc3F)cc2)csc1N [Example 1, 2-Amino-4-{4-[3-(2-fluoro-5-trifluoromethyl-phenyl)-ureido]-phenyl}-thiophene-3-carboxylic acid amide]
IC50: < 100 nM
